# Measurements reported in PubChem BioAssay AID2740 (NMMLSC, 2010).
# “And” between values parts separate entries of the source, which are not always exact repeats. Equal entries are not always repeated. The source made the active and inactive calls.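 The calls were made as follows: active = compounds whose fitted half-maximal concentration for changing the GFP signal is at or below a set limit; inactive = the rest.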
# Test: TOR pathway RPL19A-GFP modulators, concentration series – cell-based, S. cerevisiae, flow cytometry, MLPCN hits, dose response (AID 2740);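 also: background is signal of the same compound in parental non-GFP s288c yeast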
# Details: S. cerevisiae RPL19A-GFP strain, flow cytometry fluorescence, 3 h; at 33 µM (top of the series)
row,Compound,"GFP fluorescence, lower = active (kMESF (background-subtracted))"
1,CCOC(=O)Cn1cc(/C=C/[N+](=O)[O-])c2ccccc21,39.5 (inactive)
2,Nc1nc(N)c2nc(CNc3ccc(C(=O)NC(CCC(=O)O)C(=O)O)cc3)cnc2n1 (stereo unspecified),45.5 (inactive)
3,CCOC(=O)CSC1=NC(=O)/C(=C/c2ccc(OC)cc2)S1,43.8 (inactive)
4,CCN(CC(=O)NC(C)(C)C)C(=O)COc1c(Cl)cc(Cl)c2ccc(C)nc12,50.3 (inactive)
5,C=CCN1C(=O)/C(=C/c2ccc(-c3ccc(F)cc3)o2)SC1=S,34.7 (inactive)
6,O=C(OCn1ncc(Br)c(Br)c1=O)c1ccc(F)cc1,37.3 (inactive)
7,Cc1c(C(=O)Nc2nc(-c3ccccn3)cs2)oc2ccccc12,33.3 (inactive)
8,N#Cc1nccnc1S(=O)(=O)c1cccs1,35.5 (inactive)
9,C=CCOc1ccc(C(=O)/C=C2/C(=O)Nc3ccccc32)cc1,37.9 (inactive)
10,Cc1cc(S(=O)(=O)ON2C(=O)c3ccccc3C2=O)ccc1F,43.3 (inactive)
11,N#C/C(=C\c1cc(Br)ccc1F)C(=O)NC1CC1,24.2 (inactive)
12,O=C(/C=C/c1ccccc1)c1cc(Br)ccc(=O)c1O,4.04 (inactive)
13,O=C(Nc1ccccc1)ON=C1CCCC1,42.1 (inactive)
14,CN(Cc1cnc2nc(N)nc(N)c2n1)c1ccc(C(=O)N[C@@H](CCC(=O)O)C(=O)O)cc1,39.3 (inactive) and 38.8 (inactive)
15,C=CCN1C(=O)/C(=C/c2cccs2)C(=O)NC1=S,15.8 (inactive)
16,O=C(c1ccc(Cl)c([N+](=O)[O-])c1)N1CCN(c2ccccc2)CC1,46.4 (inactive)
17,O=[N+]([O-])c1ccc(S(=O)(=O)c2ccccc2)nc1,29.6 (inactive)
18,O=C1C(=O)c2ccccc2-c2ccccc21,17.7 (inactive)
19,Cc1cc(NC(=O)c2cccnc2Cl)ccc1NC(=O)c1cc2ccccc2o1,39.6 (inactive)
20,COc1cc(C=C2C(=O)c3ccccc3C2=O)cc(OC)c1OC,43.2 (inactive)
21,C=C1C(O)[C@@H]2O[C@]3(CC[C@H](/C=C/C(C)[C@@H]4CC(C)=CC5(O[C@H](C[C@@](C)(O)C(=O)O)CCC5O)O4)O3)CC[C@H]2O[C@@H]1C(O)CC(C)[C@H]1OC2(CCCCO2)CCC1C (stereo partly specified),41.3 (inactive)

row,Compound,"GFP fluorescence, lower = active (kMESF (background-subtracted))"
1,COc1ccc(C(=O)/C=C2/C(=O)Nc3ccccc32)c(OC)c1,37.3 (inactive)
2,O=C(/C=C/c1ccccc1Cl)c1ccccc(=O)c1O,5.26 (inactive)
3,Clc1ccc(N=c2ssnc2Cl)cc1,36.9 (inactive)
4,N/C(Cc1ccc(Cl)cc1)=N\OC(=O)c1cccc2ccccc12,45.3 (inactive)
5,COc1ccc(C(=O)/C=C2/C(=O)Nc3ccccc32)cc1,38 (inactive)
6,O=C(Nc1cccc(-c2csc(Nc3ccccc3)n2)c1)c1ccccc1,33.7 (inactive)
7,[O-][n+]1cccc2c(Br)cc(Br)c(O)c21,42.9 (inactive)
8,Cc1ccc(O)c(N=Nc2nccs2)c1,32.1 (inactive)
9,O=C(COc1c(Br)cc(Br)c2cccnc12)N1CCc2ccccc2C1,45.4 (inactive)
10,NC(=O)COc1ccc(C(=O)/C=C2/C(=O)Nc3ccccc32)cc1,40.3 (inactive)
11,Cc1ccc2c(nc3s/c(=C\c4ccc(-c5ccccc5C(=O)O)o4)c(=O)n32)c1C,53.5 (inactive)
12,O=c1cc(-c2ccccc2)cc(-c2ccccc2)n1O,15.4 (inactive)
13,O=C(Nc1cccc(C(F)(F)F)c1)Oc1ccc(Cl)c2cccnc12,39.4 (inactive)
14,Cc1c(Br)c(=O)oc2c(Br)c(O)c(O)cc12,38.1 (inactive)
15,Oc1c(C(Nc2nc3ccccc3s2)c2ccco2)ccc2cccnc12 (stereo unspecified),43.4 (inactive)
16,O=C1C=CC(=O)N1N(c1ccccc1)c1ccccc1,23.9 (inactive)
17,Cc1ccc(/C=C2/SC(=S)N(C3CCCCC3)C2=O)o1,38.3 (inactive)
18,O=C1N(c2ccccc2C(F)(F)F)O[C@@]1(c1ccccc1)C1CCCC1,46 (inactive)
19,O=C(Oc1c(Cl)cc(Cl)c2cccnc12)c1cccs1,36.1 (inactive)
20,O=C1ON=C(c2ccccc2)/C1=C\c1ccco1,28.9 (inactive)
21,Cc1nc2ccc(NC(=O)c3oc4ccc(F)cc4c3C)cc2s1,39 (inactive)

row,Compound,"GFP fluorescence, lower = active (kMESF (background-subtracted))"
1,COc1cccc(/C=C2\SC(=S)N(CCCC(=O)Nc3ccc(C(=O)O)cc3)C2=O)c1,38.2 (inactive)
2,CCOC(=O)c1ccc(N=Cc2nc(-c3ccccc3)oc2OC(C)=O)cc1,41.6 (inactive)
3,COC(=O)CCCC1=CC2=CC(=O)C(C)(OC(=O)CCc3ccccc3)C(=O)C2=CO1 (stereo unspecified),42.8 (inactive)
4,C#CCOCCOCCOCCNc1nc(N2CCN(C(=O)CCCCCCCCCCNC(=O)[C@H](CCCCN)n3cc(CCCC(=O)O)nn3)CC2)nc(N2CCN(C(=O)CCCCCCCCCCNC(=O)[C@H](CCCN=C(N)N)n3cc(C[C@@H](C)CC)nn3)CC2)n1,27.1 (inactive)
5,O=C(Sc1cccc2cccnc12)c1ccccc1Br,34.8 (inactive)
6,Cc1cc(C(=O)COC(=O)c2ccc[nH]c2=O)c(C)n1-c1ccccc1F,28.1 (inactive)
7,CCN(CC(=O)Nc1cc(S(=O)(=O)N2CCOCC2)ccc1Cl)Cc1ccccc1,43.2 (inactive)
8,CC(=O)Oc1oc(-c2ccccc2)nc1C=Nc1ccccc1,39.7 (inactive)
9,Cc1ccccc1C(=O)NNC(=S)NC(=O)c1ccc(Cl)cc1Cl,45.9 (inactive)
10,O=c1c2cc(Cl)ccc2nc(-c2ccc([N+](=O)[O-])cc2)n1O,14 (inactive)
11,CCc1sc(C(=O)Nc2nc(-c3ccccn3)cs2)cc1C,21.1 (inactive)
12,O=C1C=C(c2ccc(Cl)cc2)C(=O)N1Nc1ccccc1,18.7 (inactive)
13,COc1cc(NC(=O)c2ccccc2[N+](=O)[O-])ccc1NC(=O)c1cc2ccccc2o1,39.2 (inactive)
14,Cc1cccnc1Nc1nc(-c2ccccn2)cs1,33.3 (inactive)
15,CC1=C(C)/C(=N\OS(=O)(=O)c2ccc(C)cc2)C=CC1=O,16.9 (inactive)
16,CCOC(=O)C1=C(O)c2ccccc2C(=O)/C1=C\c1ccc(C)cc1,-7.18 (inactive)
17,CC(=O)c1ccc(N2CCN(C(=O)c3ccc(Br)cc3)CC2)c(F)c1,46.1 (inactive)
18,O=c1c(-c2ccc(Cl)cc2)[n+]([O-])c2ccccc2n1O,30.9 (inactive)
19,CC(=O)NN1C(=O)/C(=C/c2ccc(Br)o2)SC1=S,40.5 (inactive)
20,COc1ccccc1OCCCc1c(C)n[nH]c1C,37.6 (inactive)
21,O=c1c2sc(-c3ccccc3)cc2nc2n1CCC2,20.5 (inactive)

row,Compound,"GFP fluorescence, lower = active (kMESF (background-subtracted))"
1,Oc1c(CN2CCN(c3ccccc3)CC2)cc(Br)c2cccnc12,38.4 (inactive)
2,Cc1cc(C)c(C)c(S(=O)(=O)ON2C(=O)c3ccccc3C2=O)c1C,49.1 (inactive)
3,O=C1C(Cl)=C(NCCc2ccccc2)C(=O)N1CCc1ccccc1,43.1 (inactive)
4,CCCN1CCc2c(sc(NC(=S)NC(=O)c3ccccc3)c2C#N)C1,47.6 (inactive)
5,CCCc1ccc(OCC(=O)NNC(=S)NC(=O)c2ccco2)cc1,30.3 (inactive)
6,COc1ccc([C@]2(C(C)C)ON(c3ccccc3C(F)(F)F)C2=O)cc1,46 (inactive)
7,O=C(Nc1ccc(NC(=O)c2cc3ccccc3o2)cc1)c1ccco1,39.7 (inactive)
8,CC(c1ccccc1)N1C(=O)/C(=C/c2ccncc2)SC1=S (stereo unspecified),20.6 (inactive)
9,CCC(=O)Nc1ccc(NC(=O)c2cc3ccccc3o2)c(OC)c1,40.4 (inactive)
10,Cc1cccc(/C=C/C(=O)c2ccc([N+](=O)[O-])o2)c1,16.1 (inactive)
11,Cc1cccc(C(=O)NC(=S)NNC(=O)Cc2ccccc2)c1,52.4 (inactive)
12,Cc1cc(C)c2c(c1)/C(=C/C(=O)c1ccc(Br)s1)C(=O)N2,46.6 (inactive)
13,CN(C)C(=O)Oc1ccnc2cc(Cl)ccc12,38.2 (inactive)
14,CCCc1cc(N2CCN(c3ccccn3)CC2)n2nc(C)c(-c3ccccc3)c2n1,38.1 (inactive)
15,CCC(C)/C(C)=N/NC(=O)c1ccc(COc2ccc(Cl)c(C)c2)cc1 (stereo unspecified),44.9 (inactive)
16,COc1ccc(/C=C/C(=O)c2cc(Br)ccc(=O)c2O)cc1,-35.7 (inactive)
17,O=C(COc1ccccc1)NNC(=S)NC(=O)c1ccc(Cl)cc1Cl,28 (inactive)
18,CCN1/C(=C/c2ccc3cc(C)ccc3[n+]2CC)Sc2ccc3sccc3c21,31.5 (inactive)
